Reference: PMC3907359, “Investigation of Acetylcholine Receptor Diversity in a Nematode Parasite Leads to Characterization of Tribendimidine- and Derquantel-Sensitive nAChRs” (PLoS Pathogens, 2014)

Assays:
Format in all cases: cell-based
Ode(29-63-8), ACh-nAChR [1] = biological target: T1, Ode(29-63-8), ACh-nAChR (Oesophagostomum dentatum, UniProt E5KIX9+L7MMZ7+V5J2B2); experiment: two-electrode voltage clamp, Xenopus oocytes, agonist dose-response
T1 construct: full-length cDNAs (UNC-29 497 aa, UNC-63 507 aa, ACR-8 538 aa), pTB-207, cRNA 1:1:1 in Xenopus laevis oocytes; heteropentamer, stoichiometry undetermined; with H. contortus chaperones RIC-3, UNC-50, UNC-74
T1 sequence (V5J2B2 21-497): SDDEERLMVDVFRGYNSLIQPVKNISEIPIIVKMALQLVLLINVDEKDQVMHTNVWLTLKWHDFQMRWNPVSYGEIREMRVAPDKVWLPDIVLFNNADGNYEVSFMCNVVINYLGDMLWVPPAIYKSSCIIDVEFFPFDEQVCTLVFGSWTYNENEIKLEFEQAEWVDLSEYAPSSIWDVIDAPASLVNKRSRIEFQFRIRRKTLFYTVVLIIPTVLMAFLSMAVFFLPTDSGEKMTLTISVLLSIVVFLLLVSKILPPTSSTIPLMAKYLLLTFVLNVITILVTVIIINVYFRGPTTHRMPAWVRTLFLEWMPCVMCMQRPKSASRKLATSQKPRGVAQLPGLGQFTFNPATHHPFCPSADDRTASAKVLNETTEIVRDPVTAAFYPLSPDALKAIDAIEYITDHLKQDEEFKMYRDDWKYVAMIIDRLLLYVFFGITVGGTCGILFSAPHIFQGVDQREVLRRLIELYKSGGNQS
T1 sequence (E5KIX9 22-507): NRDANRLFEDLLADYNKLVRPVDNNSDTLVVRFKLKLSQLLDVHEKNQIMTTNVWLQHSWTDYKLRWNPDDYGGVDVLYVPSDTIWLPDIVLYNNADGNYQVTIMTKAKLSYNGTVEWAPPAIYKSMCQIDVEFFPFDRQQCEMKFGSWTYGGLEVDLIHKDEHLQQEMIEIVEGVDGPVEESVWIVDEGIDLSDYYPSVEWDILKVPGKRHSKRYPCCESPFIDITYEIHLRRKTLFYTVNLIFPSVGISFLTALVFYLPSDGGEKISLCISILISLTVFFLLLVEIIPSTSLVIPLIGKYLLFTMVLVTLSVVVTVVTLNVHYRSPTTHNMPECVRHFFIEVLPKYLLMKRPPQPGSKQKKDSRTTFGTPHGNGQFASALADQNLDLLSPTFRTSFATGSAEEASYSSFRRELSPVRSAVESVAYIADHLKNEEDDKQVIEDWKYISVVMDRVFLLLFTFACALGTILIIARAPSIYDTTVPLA
T1 sequence (L7MMZ7 21-538): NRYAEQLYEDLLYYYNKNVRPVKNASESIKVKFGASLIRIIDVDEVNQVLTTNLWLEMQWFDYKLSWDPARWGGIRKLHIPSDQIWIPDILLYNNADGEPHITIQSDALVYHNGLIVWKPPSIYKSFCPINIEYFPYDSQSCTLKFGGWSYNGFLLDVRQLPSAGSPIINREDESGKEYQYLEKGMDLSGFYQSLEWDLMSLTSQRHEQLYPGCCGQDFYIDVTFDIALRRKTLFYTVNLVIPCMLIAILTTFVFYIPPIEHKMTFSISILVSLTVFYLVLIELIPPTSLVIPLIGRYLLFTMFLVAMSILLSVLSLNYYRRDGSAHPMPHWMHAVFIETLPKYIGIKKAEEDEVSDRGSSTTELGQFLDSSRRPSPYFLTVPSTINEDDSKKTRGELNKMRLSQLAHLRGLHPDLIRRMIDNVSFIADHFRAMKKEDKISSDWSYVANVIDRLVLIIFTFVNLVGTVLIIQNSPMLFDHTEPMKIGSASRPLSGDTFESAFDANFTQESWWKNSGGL
Excerpt: two-electrode voltage clamp, Xenopus oocytes, agonist dose-response on Ode(29-63-8), ACh-nAChR

[2] = biological target: T2, Ode(29-63-8-38), Lev-nAChR (Oesophagostomum dentatum, UniProt E5KIX9+L7MMZ7+V5J2B2+V5J336); experiment: as above
T2 construct: full-length cDNAs (UNC-29 497 aa, UNC-63 507 aa, ACR-8 538 aa, UNC-38 507 aa), pTB-207, cRNA 1:1:1:1 in Xenopus laevis oocytes; heteropentamer, stoichiometry undetermined; with H. contortus chaperones RIC-3, UNC-50, UNC-74
T2 sequence (V5J336 21-507, one chain of several): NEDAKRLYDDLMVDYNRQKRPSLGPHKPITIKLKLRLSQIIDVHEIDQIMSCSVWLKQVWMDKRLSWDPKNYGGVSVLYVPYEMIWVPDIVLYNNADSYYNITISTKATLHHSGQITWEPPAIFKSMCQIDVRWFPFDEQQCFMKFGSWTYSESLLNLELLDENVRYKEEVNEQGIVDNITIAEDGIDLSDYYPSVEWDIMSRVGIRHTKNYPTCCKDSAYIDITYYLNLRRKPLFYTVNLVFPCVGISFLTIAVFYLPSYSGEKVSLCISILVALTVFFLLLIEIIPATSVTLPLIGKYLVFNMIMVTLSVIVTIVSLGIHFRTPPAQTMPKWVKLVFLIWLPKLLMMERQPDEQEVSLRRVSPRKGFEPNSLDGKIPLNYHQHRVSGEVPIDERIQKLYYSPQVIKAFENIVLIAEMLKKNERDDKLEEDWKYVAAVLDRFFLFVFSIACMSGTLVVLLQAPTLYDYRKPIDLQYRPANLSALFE
Excerpt: two-electrode voltage clamp, Xenopus oocytes, agonist dose-response on Ode(29-63-8-38), Lev-nAChR

Ode(29-63-8), ACh-nAChR [3] = biological target: T1, Ode(29-63-8), ACh-nAChR; experiment: voltage clamp, oocytes; single concentration current; settings: agonist, 30 µM

Compound	EC50 (Ode(29-63-8), ACh-nAChR [1]) [µM]	EC50 [2] [µM]	voltage clamp, oocytes; single concentration current (Ode(29-63-8), ACh-nAChR [3])
CC(=O)OCC[N+](C)(C)C [acetylcholine]	3.5 ± 0.2	4.2 ± 0.2	–
C[N+](C)(CCOc1ccccc1)Cc1ccccc1 [bephenium]	–	–	responses to all the agonists we tested, including bephenium and thenium
